{"source": "patent US20250074946A1", "about": "“USE OF SE-DR AFFINITY PEPTIDE IN PREPARING DRUG FOR TREATING RHEUMATIC DISEASE” (HEBEI FITNESS BIOTECHNOLOGY CO., LTD., priority 2021, published 2025)", "key": {"HLA-DR1": {"tested_on": "HLA-DR1", "assay": "Determination of polypeptide affinity (fluorescence polarization competition)", "type": "binding, human", "details": "competition with 25 nM fluorescently-labeled polypeptide, 500 nM HLA-DR1, pH 7.4, 37° C. 30 min, fluorescence polarization, curve fitting", "method": "The reaction system was at pH 7.4. Before use, protease inhibitor cocktail was added, and incubated at 37° C. for 30 min. The fluorescence polarization values were read. The mean value of the free labeled polypeptides was set as FP_free, and the value of the well without the competitive peptide was set as FP_no_comp. The relative binding rate of other wells was calculated according to the formula=(FP_sample−FP_free)/(FP_no_comp−FP_free). A curve was plotted using the relative binding rate and the concentration of the test polypeptide, and the IC50 value was calculated by curve fitting."}, "[1]": {"tested_on": "CIA rats with latent tuberculosis infection", "details": "for Tuberculosis recurrence rate / Inflammation score and area under the time curve (AUC) / Culture of MTB from lungs and spleens of rats at sacrifice: peptides 0.2 mmol, adalimumab 1 mg/kg; for Tuberculosis recurrence rate: 21 days; for Inflammation score and area under the time curve (AUC): tail i.v. once every other day for 21 days; for Culture of MTB from lungs and spleens of rats at sacrifice: sacrifice on day 22"}, "CIA rats": {"tested_on": "CIA rats", "type": "in vivo, rat", "text": "Female Lewis rats were used to establish CIA model. Methods: The rats were immunized by intradermal injection with the emulsion prepared by bovine C II and IFA at the tail head. After 7 days, the rats were boosted once with the same method. Thereafter, the morphological changes of the four paws of the rats were examined every day. […] Another 8 female Lewis rats were not subjected to model establishment and set as the control group. PBS was administrated to both the model group and the control group. […] The inflammation scores of the four paws of the rats in each group were evaluated during the administration (once every other day), and the area under the curve (AUC) of the inflammation score was calculated during the administration. During drug discontinuation, the inflammation scores of the four paws of the rats in each group were continuously evaluated (once every other day), and the rats were sacrificed on day 22 after drug discontinuation. HE staining was performed on the ankle joint for tissue injury evaluation. The specific scoring criteria were as follows: 0=normal synovial tissue; 1=synovial hyperplasia and inflammatory cell infiltration; 2=pannus formation and cartilage erosion; 3=destruction of most of the cartilage with subchondral bone erosion; 4=loss of joint integrity, ankylosis."}, "[2]": {"details": "inflammation score AUC, FNS007 0.2 mmol, adalimumab 1 mg/kg, i.v. once every other day"}}, "note": "Read-outs that look alike come from different tables or passages of the source. Where no end group is shown, it is not given here.", "data": [{"substance": "AVKHNALKWA [APL52]", "values": [{"measurement": "IC50", "setting": "HLA-DR1", "result": "> 100", "unit": "µM"}]}, {"substance": "adalimumab", "values": [{"measurement": "Observation on the daily condition of rats", "setting": "[1]; during administration", "result": "obvious toxicity symptoms such as piloerection and reduced activity"}, {"measurement": "Tuberculosis recurrence rate", "setting": "[1]", "result": 60, "unit": "%"}, {"measurement": "Tuberculosis recurrence rate", "setting": "[1]; listed as adalimumab", "result": 60, "unit": "%"}, {"measurement": "Inflammation score and area under the time curve (AUC)", "setting": "[1]", "result": "50.42 ± 27.13"}, {"measurement": "Inflammation score and area under the time curve (AUC)", "setting": "[1]; listed as adalimumab", "result": "significantly reduce the inflammation score"}, {"measurement": "Culture of MTB from lungs and spleens of rats at sacrifice", "setting": "[1]", "result": "6/10 Positive"}, {"measurement": "Culture of MTB from lungs and spleens of rats at sacrifice", "setting": "[1]; listed as adalimumab", "result": "positive in 6/10 rats"}, {"measurement": "inflammation score during drug discontinuation compared with that at the time of drug discontinuation", "setting": "CIA rats; 21 days of observation after stopping at day 21", "result": "significantly increased"}, {"measurement": "Pathological score during 21 days of drug discontinuation", "setting": "CIA rats; HE staining of ankle joint, score 0-4", "result": "2.69 ± 0.80"}, {"measurement": "AUC, during drug discontinuation (day 22-42)", "setting": "CIA rats; inflammation score AUC after stopping administration at day 21", "result": "96.85 ± 26.51"}, {"measurement": "AUC, during administration (day 1-21)", "setting": "CIA rats; [2]", "result": "54.51 ± 22.72"}, {"measurement": "AUC, the first week during administration", "setting": "CIA rats; [2]", "result": "13.93 ± 4.81"}, {"measurement": "AUC, during administration (day 1-21)", "setting": "CIA rats; inflammation score AUC, FNS007 0.2 mmol, adalimumab 1 mg/kg, i.v. once every other day, listed as adalimumab", "result": 54.51}, {"measurement": "Incidence of infection in rats", "setting": "CIA rats; rat, in vivo", "result": 10, "unit": "%"}, {"measurement": "Observation on the daily state of rats", "setting": "CIA rats; rat, in vivo", "result": "Piloerection, epistaxis, prostration, reduced activity, etc."}]}, {"substance": "RSFTAASSETGVG [APL14]", "values": [{"measurement": "IC50", "setting": "HLA-DR1", "result": 6.54, "unit": "µM"}]}]}
